PMC6719955, “HPLC-ESI-qTOF-MS/MS Characterization, Antioxidant Activities and Inhibitory Ability of Digestive Enzymes with Molecular Docking Analysis of Various Parts of Raspberry (Rubus ideaus L.)” (Antioxidants, 2019)
Read-outs that look alike come from different tables or passages of the source.

Tests used:
[1] = system: α-glucosidase; conditions: cited from earlier work
[2] = DPPH radical scavenging activity assay; conditions: extracts made with 50% methanol
Procedure: DPPH assay was measured based on the method described earlier. The absorbance at 517 nm was recorded by a microplate reader (SpectraMax M5 Molecular Device, CA, USA). Trolox or Vc solution (5–100 μg/mL) were served as positive controls. […] (1) DPPH radical scavenging activity (%) = (1−As−Ab/Ac)×100 where As = the absorbance of the sample extracts with DPPH solution, Ab = the absorbance of the sample extracts without DPPH solution, Ac = the absorbance of DPPH solution.

[3] = Hydroxyl (OH^−) radical scavenging activity assay; conditions: extracts made with 50% methanol
Procedure: The scavenging activity of OH[…] radicals was measured based on the method described by Liu et al., 2017 [19]. The reaction mixture included 100 μL of the extracts’ dilutions, 100 μL of 6 mM […] solution, and 100 μL of 2.4 mM H2O2. After 10 min of incubation at 25°C, the mixture was incubated with 100 μL of 6 mM salicylic acid at 25 °C for 30 min, then the absorbance at 510 nm was measured. A Trolox or Vc solution (5–100 μg/mL) served as the positive control.

[4] = target: α-glucosidase; test: α-Glucosidase inhibition activity assay (p-NPG); assay type: biochemical, Saccharomyces cerevisiae; conditions: 1 U/mL enzyme, pH 6.8, 37 °C
From the text: (§1) The Folin–Ciocalteu phenol reagent and chemicals used for the antioxidant activity assay were purchased from Aladdin Industrial Corporation (Shanghai, China). Phenolic standards, trolox, p-Nitrophenyl-α-D-glucopyranoside (p-NPG, > 99.8%), porcine pancreatic α-amylase (13 U/mg), and α-glucosidase (≥ 58 U/mg solid) from Saccharomyces cerevisiae were all purchased from Sigma-Aldrich (St. Louis, MO, USA). Analytical-grade materials were purchased from Guangzhou Reagent Co. (Guangzhou, China). Formic acid and acetonitrile used for the HPLC analysis were of chromatography grade. Water was purified by the Milli-Q (Millipore, MA, USA) system and filtered through membranes with a pore size of 0.22 μm before use.
The inhibitory activity of α-glucosidase was performed as the previous reported method with modifications. Briefly, 100 μL of the extracts’ dilutions and 100 μL of 1 U/mL α-glucosidase in 0.1 M phosphate buffer solution (pH 6.8) was mixed and pre-incubated at 37 °C for 10 min. Then, 100 μL of 5 mM p-NPG solution was added, and the reaction solution was incubated for another 20 min. The reaction was terminated by adding 500 μL of 0.2 M Na2CO3 solution. The absorbance at 405 nm was recorded. […] The inhibitory potency (%) was calculated by Equation (3). (3) α-Glucosidase inhibitory potency (%) = [1−ΔAs/ΔAc]×100 where ΔAs = Aextract+enzyme − Aextract, ΔAc = Abuffer+enzyme − Abuffer.

[5] = parameters: method as in Malinda et al. (2017) [34]; conditions: ref Malinda et al. (2017) [34]; cited from earlier work
[6] = ABTS cation radical scavenging activity assay; conditions: extracts made with 50% methanol
Procedure: ABTS assay was determined according to the method of Wang et al. (2017). The absorbance at […] was recorded by the microplate reader. Trolox or Vc solution (5–100 μg/mL) was served as positive controls. The scavenging activity (%) was calculated by Equation (2). (2) ABTS^+ radical scavenging activity (%) = (1−As−Ab/Ac)×100 where As = the absorbance of the extracts with ABTS^+ solution, Ab = the absorbance of the extracts without ABTS^+ solutionl, Ac = the absorbance of ABTS^+ solution.

[7] = target: T1, porcine pancreatic α-amylase (Sus scrofa, UniProt P00690); test: α-Amylase inhibition activity assay (starch/DNS); assay type: biochemical; conditions: 0.5 mg/mL enzyme, pH 6.8, 37 °C
T1 construct: purchased Sigma-Aldrich
T1 sequence (P00690 16-511): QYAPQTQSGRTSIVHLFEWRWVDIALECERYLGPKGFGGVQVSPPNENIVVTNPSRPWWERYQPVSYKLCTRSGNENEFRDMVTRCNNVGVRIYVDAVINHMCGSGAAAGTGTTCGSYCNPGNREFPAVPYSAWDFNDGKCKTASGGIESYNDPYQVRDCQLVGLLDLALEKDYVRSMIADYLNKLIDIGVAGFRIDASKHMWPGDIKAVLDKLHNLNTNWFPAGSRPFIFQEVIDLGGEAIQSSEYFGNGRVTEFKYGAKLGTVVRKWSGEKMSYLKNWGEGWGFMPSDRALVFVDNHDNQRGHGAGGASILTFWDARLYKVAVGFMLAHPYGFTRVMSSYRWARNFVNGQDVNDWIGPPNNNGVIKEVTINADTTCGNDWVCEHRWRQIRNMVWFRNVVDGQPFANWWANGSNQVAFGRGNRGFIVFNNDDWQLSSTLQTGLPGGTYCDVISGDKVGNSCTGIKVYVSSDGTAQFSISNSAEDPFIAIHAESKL
From the text: as §1, with “Phenolic standards, trolox, p-Nitrophenyl-α-D-glucopyranoside (p-NPG, > 99.8%), porcine pancreatic α-amylase (13 U/mg), and α-glucosidase (≥ 58 U/mg solid) from Saccharomyces cerevisiae were all purchased from Sigma-Aldrich (St. Louis, MO, USA).” left out

[8] = constituents in raspberry, ref Zhang et al. (2010) [39]

DPPH radical scavenging IC50 [2]	OH^− free radical scavenging IC50 [3]	α-glucosidase inhibition IC50 [4]	Compound	α-glucosidase inhibitory capacity [1, 8]	DPPH radical scavenging activity IC50 [5]	further results
16.80 ± 1.31 µg/mL	19.83 ± 0.37 µg/mL	–	O=C1O[C@H]([C@@H](O)CO)C(O)=C1O [Vc, ascorbic acid]	–	–	–
–	–	590.34 ± 15.71 µg/mL	O=C(O)c1cc(O)c(O)c(O)c1 [GA, Gallic acid]	strong	2.24 µg/mL	–
39.90 ± 0.67 µg/mL	33.91 ± 1.82 µg/mL	–	Cc1c(C)c2c(c(C)c1O)CCC(C)(C(=O)O)O2 (stereo not drawn) [Trolox]	–	–	ABTS^+ free radical scavenging IC50 [6]: 41.50 ± 1.97 µg/mL

More lines, now with the values behind:

Compound	DPPH radical scavenging IC50 [2]	OH^− free radical scavenging IC50 [3]	α-glucosidase inhibition IC50 [4]	α-glucosidase inhibitory capacity [1, 8]	DPPH radical scavenging activity IC50 [5]	further results
C[C@@H]1O[C@@H](OC[C@H]2O[C@@H](Oc3c(-c4ccc(O)c(O)c4)oc4cc(O)cc(O)c4c3=O)[C@H](O)[C@@H](O)[C@@H]2O)[C@H](O)[C@H](O)[C@H]1O [rutin, Rutin]	–	–	–	strong	–	–
Oc1cc(O)c2c(c1)O[C@H](c1ccc(O)c(O)c1)[C@@H](O)[C@@H]2c1c(O)cc(O)c2c1O[C@H](c1ccc(O)c(O)c1)[C@@H](O)[C@@H]2c1c(O)cc(O)c2c1O[C@H](c1ccc(O)c(O)c1)[C@@H](O)C2 [PC, Procyanidin C3]	–	–	93.37 ± 5.79 µg/mL	–	–	α-amylase inhibition IC50 [7]: 92.31 ± 3.51 µg/mL; α-glucosidase inhibitory capacity ([1]; ref Wang et al. (2018) [38]): strong
O=c1oc2c(O)c(O)cc3c(=O)oc4c(O)c(O)cc1c4c23 [EA, Ellagic acid]	–	–	976.32 ± 41.72 µg/mL	weakest	4.80 µg/mL	–
